One experiment concerns the target T1, c-Abl kinase domain (Mus musculus, UniProt P00520).
T1 sequence (P00520 242-493 limits assumed): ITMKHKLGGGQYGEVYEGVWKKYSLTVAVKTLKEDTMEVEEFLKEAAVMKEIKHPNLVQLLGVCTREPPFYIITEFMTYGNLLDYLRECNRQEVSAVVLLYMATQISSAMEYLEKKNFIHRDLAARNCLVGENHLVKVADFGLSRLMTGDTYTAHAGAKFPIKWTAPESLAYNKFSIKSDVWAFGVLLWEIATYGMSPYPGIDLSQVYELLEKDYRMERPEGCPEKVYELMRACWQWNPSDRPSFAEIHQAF
Nature of the experiment: pTyr-Var library bacterial peptide display kinase screen (enrichment scores). The class given is biochemical.

The target of a further experiment is c-Src kinase domain (Homo sapiens, UniProt P12931). The experiment is described as above. The conditions noted are these: sheet "Src". It is filed as biochemical.
The mark [1] stands for this setting: sheet "Abl", effect of variant peptide relative to its reference peptide in pTyr-Var library screen (enrichment).
Setting [2] is: variant peptide versus its reference peptide in the pTyr-Var library screen.
[3] abbreviates: fig5-data2, sheet "Abl", Screen for the variant/reference peptide pair, pTyr-Var library.
Where [4] appears, read: effect of the variant peptide relative to its reference peptide in the pTyr-Var library screen.
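Further: log2 fold change in enrichment of variant over reference.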

The sequence RRGMPYGGHGD [TGM1_Y312_R315H] had a Screen on c-Abl kinase domain (setting [1]) of 0.4767.
On c-Abl kinase domain (setting [1]), HLQDEYDFKCK [STAT1_Y170_D165H] showed a Screen of -0.7143.
As to FSCLPYRRLAF [SLC52A2_Y305_G306R_YF], at c-Src kinase domain (setting [2]), the Screen is given as -1.493.
For the sequence ASPKSYPSQKH [CAP2_Y316_T311A], the Screen on c-Abl kinase domain (setting [3]) is recorded as 0.389.
GFKVRYATGSI [FGFR1_Y210_W213G_YF] registered a Screen on c-Abl kinase domain (setting [3]) of 1.302.
On to LDFNEYFRFLN [HPRT1_Y198_D201Y_YF], for which the Screen on c-Src kinase domain (setting [4]) amounted to 2.939.
ENKGVYVPMSG [IVD_Y277_L279P] came in with a Screen at c-Abl kinase domain (setting [3]) of -1.069.
The sequence EFTAGYNVKFD [GPX4_Y123_A120T] registered a Screen on c-Abl kinase domain (setting [3]) of -0.6842.
Same read-out and setting: in the case of KGEDFYCVTRH [FHL1_Y149_C153R] it was -2.042.
With SVMAEYGLFRA [VSX2_Y219_G223R_YF], the Screen on c-Src kinase domain (setting [2]) is recorded as -0.02483.
For the sequence KRIETYFSKNF [PLP1_Y50_L46R_YF], on c-Abl kinase domain (setting [3]), the Screen is -0.1285.
At c-Abl kinase domain (setting [3]), EVDETYVPKKF [ALB_Y521_E525K] gave a Screen of 0.9455.
Take KEKLCYVAPDF [ACTA1_Y220_L223P]: at c-Src kinase domain (setting [4]), the Screen is given as -1.653.
On the same count and under the same terms, the same measure for EFQLPYFNTVP [BMPR1A_Y457_M460T_YF]: -0.7468.
Sequence IVRSLYEDPED [VHL_Y185_L188P] had a Screen at c-Abl kinase domain (setting [1]) of -2.672.
Take DKATEYIQFVR [MAX_Y70_M74V_YF]: the Screen at c-Abl kinase domain (setting [3]) was 0.6462.
The sequence NVADHYRVFKP [ATP6V0D2_Y271_G272R_YF] displayed a Screen on c-Src kinase domain (setting [4]) of -3.184.
Take KPGVNYFFQVS [TTN_Y28165_R28168Q_YF]: the Screen at c-Abl kinase domain (setting [1]) is recorded as -1.428.
Still for that read-out and setting: in the case of SVTFTYSPALN [TP53_Y126_C124Y_YF] it was 1.264.
The sequence EGDGVYTLNNK [HP_Y125_E130K] yielded a Screen at c-Src kinase domain (setting [4]) of 0.08373.
Still for that read-out and setting: the same measure for IRSGIYFKPES [L2HGDH_Y102_H98R_YF]: -1.512.
DTQNSYRCATS [TSC1_Y304_G305R] came in with a Screen at c-Abl kinase domain (setting [1]) of -1.491.
For RGRSTYFWPSP [GAGE12J_Y9_R13S_YF], the Screen on c-Abl kinase domain (setting [3]) was found to be 0.4744.
Regarding DPEGAYTTRGG [EPHA3_Y779_A777G], the Screen on c-Abl kinase domain (setting [3]) is recorded as -2.084.
FRRITYFNWRH [PDE6B_Y556_H557Y_YF]: at c-Abl kinase domain (setting [3]), the Screen is listed as 1.003.
For DPLLTYLFPPK [LMNA_Y481_R482L], the Screen on c-Src kinase domain (setting [4]) is on record as 2.327.
In turn, LLKMMYLMLDN [STAT1_Y203_K201M] had a Screen at c-Abl kinase domain (setting [1]) of 0.1881.
Sequence SLNEEYAKNKT [MSH2_Y563_T564A] had a Screen on c-Abl kinase domain (setting [3]) of 0.808.
Regarding EIASHYRHLLR [ZBTB46_Y14_T11A], the Screen on c-Abl kinase domain (setting [1]) is on record as -2.772.
With TENAGYFFQVS [TTN_Y31721_R31724Q_YF], at c-Abl kinase domain (setting [1]), the Screen is -1.788.
At c-Abl kinase domain (setting [3]), MLEVPYVDHNS [F10_Y384_R387H] returned a Screen of 2.373.
Same read-out and setting: the same measure for REGAKYVSHCA [ASS1_Y113_G117C]: -1.469; for RLNCIYFKDQT [RS1_Y165_W163C_YF]: 0.3384.
KDHPDYKFQRR [SOX10_Y171_P175R_YF]: the Screen at c-Abl kinase domain (setting [1]) is reported as -0.3891.
In the case of QMVGKYASSFM [AVPR2_Y124_M123K_YF], the Screen at c-Src kinase domain (setting [4]) was -1.364.
The sequence EFITRYIDSLK [PSMA7_Y110_A112D_YF] registered a Screen at c-Abl kinase domain (setting [3]) of -0.5363.
Still for that read-out and setting: the same measure for RSHRSYSCQVM [IGLL1_Y192_R189H]: -0.4092.
In turn, CVAARYMDMKG [WFIKKN2_Y93_V96M] had a Screen on c-Abl kinase domain (setting [1]) of -2.912.
With VDGSVYKLPPS [GCK_Y413_H416P], the Screen at c-Src kinase domain (setting [4]) is -1.181.
On the same count and under the same terms, the same measure for KHCEDYVFSFN [DSC1_Y846_C848F_YF]: 1.064.
The same measure, in the same setting: the same measure for EWCSPYGLTPR [GRIN3B_Y601_R598C]: 1.62.
Regarding PPSELYFVKVD [TERT_Y707_P704S], on c-Src kinase domain (setting [2]), the Screen is on record as -0.06532.
PLDGGYFTLQI [TP53_Y327_E326G] showed a Screen on c-Src kinase domain (setting [2]) of -1.493.
With QQMGTYGVRAA [ICAM2_Y260_R256Q], the Screen at c-Src kinase domain (setting [4]) was 0.6458.
The same measure, in the same setting: in the case of IGERTYGQVFK [CDK13_Y716_G714R_YF] it was -0.5578.

For the origin of these results see publication PMC10065799, “High-throughput profiling of sequence recognition by tyrosine kinases and SH2 domains using bacterial peptide display” (eLife, 2023).
